Results from ChEMBL document CHEMBL1125804, “Antitumor agents. 120. New 4-substituted benzylamine and benzyl ether derivatives of 4'-O-demethylepipodophyllotoxin as potent inhibitors of human DNA topoisomerase II” (1991).

How the values were obtained:
Nucleic Acid [1] = assay: % complex formation of cellular protein -DNA complex at a concentration of 10 uM; type: functional; conditions: Homo sapiens
[2] = target: DNA topoisomerase II (Homo sapiens) (UniProt P11388+Q02880); assay: Inhibition of human DNA topoisomerase II; type: protein assay
[3] = 50% reduction in KB cell number after a 3-day incubation.; type: functional; conditions: Homo sapiens, 72 h, read-out: ID50 (the source's name)
Nucleic Acid [4] = assay: Compound was tested for the % complex formation of cellular protein -DNA complex at a concentration of 10 uM; type: functional; conditions: Homo sapiens
[5] = Compound was tested for the concentration to afford 50% reduction in KB cell number after a 3-day incubation; type: functional; conditions: Homo sapiens, 72 h, read-out: ID50 (the source's name)

Row | SMILES | Complex formation (Nucleic Acid [1]) [%] | ID50 [2] [nM] | IC50 [3] [nM] | Complex formation (Nucleic Acid [4]) [%] | IC50 [5] [nM]
1 | COc1cc(CN[C@@H]2c3cc4c(cc3[C@@H](c3cc(OC)c(O)c(OC)c3)[C@H]3C(=O)OC[C@@H]32)OCO4)cc(OC)c1 | 144 | 100000 | 1700 | – | –
2 | COc1cc([C@@H]2c3cc4c(cc3[C@@H](NCc3ccc(C(F)(F)F)cc3)[C@H]3COC(=O)[C@H]23)OCO4)cc(OC)c1O | 99 | 100000 | 2300 | – | –
3 | COc1cc([C@@H]2c3cc4c(cc3[C@@H](OCc3ccccc3)[C@H]3COC(=O)[C@H]23)OCO4)cc(OC)c1O | < 25 | > 100000 | 2400 | – | –
4 | COc1cc([C@@H]2c3cc4c(cc3[C@@H](Nc3ccc(N)cc3)[C@H]3COC(=O)[C@H]23)OCO4)cc(OC)c1O | 330 | – | 800 | – | –
5 | COc1cc([C@@H]2c3cc4c(cc3[C@@H](NCc3cccc(Cl)c3)[C@H]3COC(=O)[C@H]23)OCO4)cc(OC)c1O | 159 | 50000 | 1200 | – | –
6 | COc1cc([C@@H]2c3cc4c(cc3[C@@H](O[C@@H]3O[C@@H]5CO[C@@H](C)O[C@H]5[C@H](O)[C@H]3O)[C@H]3COC(=O)[C@H]23)OCO4)cc(OC)c1O [ETOPOSIDE] | – | – | 200 | 100 | –
7 | COc1cc([C@@H]2c3cc4c(cc3[C@@H](NCc3ccc(F)cc3)[C@H]3COC(=O)[C@H]23)OCO4)cc(OC)c1O | 169 | 50000 | > 4000 | – | –
8 | COc1cc([C@@H]2c3cc4c(cc3[C@@H](NCc3ccc([N+](=O)[O-])cc3)[C@H]3COC(=O)[C@H]23)OCO4)cc(OC)c1O | 216 | 50000 | 400 | – | –
9 | COc1cc([C@@H]2c3cc4c(cc3[C@@H](Nc3ccc(F)cc3)[C@H]3COC(=O)[C@H]23)OCO4)cc(OC)c1O | 213 | – | 240 | – | –
10 | COc1cc([C@@H]2c3cc4c(cc3[C@@H](NCc3ccccc3)[C@H]3COC(=O)[C@H]23)OCO4)cc(OC)c1O | 181 | 25000 | 2200 | – | –
11 | COc1cc([C@@H]2c3cc4c(cc3[C@@H](NCc3ccccc3F)[C@H]3COC(=O)[C@H]23)OCO4)cc(OC)c1O | 126 | 100000 | 1900 | – | –
12 | COc1cc([C@@H]2c3cc4c(cc3[C@@H](NCc3ccccc3[N+](=O)[O-])[C@H]3COC(=O)[C@H]23)OCO4)cc(OC)c1O | 144 | 50000 | 1800 | – | –
13 | COc1cc([C@@H]2c3cc4c(cc3[C@@H](NCc3ccc(C#N)cc3)[C@H]3COC(=O)[C@H]23)OCO4)cc(OC)c1O | 284 | 25000 | < 400 | – | –
14 | COc1cc([C@@H]2c3cc4c(cc3[C@@H](OCc3ccc([N+](=O)[O-])cc3)[C@H]3COC(=O)[C@H]23)OCO4)cc(OC)c1O | < 25 | > 100000 | 1900 | – | –
15 | COc1cc([C@@H]2c3cc4c(cc3[C@@H](NCc3cccc([N+](=O)[O-])c3)[C@H]3COC(=O)[C@H]23)OCO4)cc(OC)c1O | 130 | 25000 | < 400 | – | –
16 | COc1cc([C@@H]2c3cc4c(cc3[C@@H](Nc3ccc([N+](=O)[O-])cc3)[C@H]3COC(=O)[C@H]23)OCO4)cc(OC)c1O | – | – | – | 323 | 490
17 | COc1cc([C@@H]2c3cc4c(cc3[C@@H](NCc3cccc(N)c3)[C@H]3COC(=O)[C@H]23)OCO4)cc(OC)c1O | 191 | 25000 | < 400 | – | –
18 | COc1cc([C@@H]2c3cc4c(cc3[C@@H](NCc3cccc(F)c3)[C@H]3COC(=O)[C@H]23)OCO4)cc(OC)c1O | 216 | 25000 | 3000 | – | –
19 | COc1cc([C@@H]2c3cc4c(cc3[C@@H](NCc3ccccc3N)[C@H]3COC(=O)[C@H]23)OCO4)cc(OC)c1O | 184 | 25000 | < 400 | – | –
20 | COc1cc([C@@H]2c3cc4c(cc3[C@@H](NCc3cccc(C#N)c3)[C@H]3COC(=O)[C@H]23)OCO4)cc(OC)c1O | 225 | 25000 | < 400 | – | –
